“Also recorded” adds a separate entry of the source.

What all share (assay type): in vivo, mouse
For data set [1], the system named is CTX mice. The data set can be described thus: Hepatomegaly: relative liver weight as percentage of body weight. Conditions: 0.5% diet, 3 months. As for the experimental part:
FIG. 11. AAV8-EAAT-CYP27A1 reverses hepatomegaly in CTX mice. The AAV8-EAAT-CYP27A1 vector was administered intravenously to 7 week-old CTX mice at the indicated doses. CDCA was mixed in mouse chow at 0.1 or 0.5%. Untreated CTX and WT littermates were included as a reference. Mice were maintained for 3 months and then they were sacrificed for determination of relative liver weight, represented as percentage of body weight. *p<0.05; ***p<0.001 versus untreated CTX mice. Kruskal-Wallis with Dunn's post-test.
Activation of the xenobiotic response pathways produces hepatomegaly in CTX mice (Repa J J, et al. J. Biol. Chem. 2000; 275:39685-39692).

Data set [2] has as its system CTX mice. The data set can be described thus: Tolerability: transaminases (ALT), liver histology, body weight, signs of toxicity. Conditions: diet 1% of chow weight.
Procedure: Blood was centrifuged at 10.000 g for 5 min at room temperature. Plasma was treated with 20 μM butylhydroxytoluene (Sigma) in a N2 atmosphere to protect from oxidation before storage at −80° C. in opaque tubes. […] Alanine aminotransferase (ALT) was quantified in 40 μl plasma samples using a Cobas C311 automated chemistry analyser (Roche Diagnostics, Basel, Switzerland).
The test system of data set [3] is Cyp27a1. The data set can be described thus: Endogenous Cyp27a1 mRNA in liver (primers exons 1/2), qPCR. Conditions: liver 2 weeks after vector or one month after initiation of CDCA diet. As for the experimental part:
(§1) RNA was extracted from frozen liver samples using the Maxwell® 16 LEV simplyRNA Cells Kit (Promega) following manufacture's recommendations. Two μg of RNA, treated with DNase I, were retro-transcribed using M-MLV retro-transcriptase (Invitrogen™) and random primers (Life Technologies, Thermo). cDNA was amplified and relative gene expression was determined by quantitative polymerase chain reaction (qPCR) using iQ™ SYBR® Green Supermix reagent (Bio-Rad), in CFX96 Touch™ Real-Time PCR Detection System (Bio-Rad). Table 1 contains the sequence of primers specific for the transgene (CYP27A1) and the mouse genes Cyp7a1, Cyp3a11, Cyp27a1 (exons 1/2), Cyp27a1 (exons 8/9) and 36b4 (used as a housekeeping gene).
(§2) ΔCt values using 36b4 mRNA levels as reference gene were corrected with the efficiency of amplification of each pair of primers and multiplied by 1.000 to facilitate graphical representation.
(§3) To this aim, mRNA was extracted from liver samples collected 2 weeks after vector administration, or one month after initiation of the CDCA treatment. First, the inventors studied the impact of the treatments on the transcriptional control of the endogenous Cyp27a1 gene. Since CTX mice present truncation of the gene at exon 8 out of 9 (Rosen H, et al. J. Biol. Chem. 1998; 273:14805-14812), the inventors employed primers targeting exons 1/2 in order to detect the wild type or truncated transcripts.
(In general: In qPCR the cycle at which signal appears reflects the starting amount.)

The test system of data set [4] is CTX mice. The data set can be described thus: Bile acid profile in blood (HPLC-MS/MS). As for the experimental part:
(§4) Blood was centrifuged at 10.000 g for 5 min at room temperature. Plasma was treated with 20 μM butylhydroxytoluene (Sigma) in a N2 atmosphere to protect from oxidation before storage at −80° C. in opaque tubes. Sterol extractions were performed using 100 μl of plasma for quantification of cholestanol and 7αC4 concentrations by HPLC-MS/MS as previously described (Chen W, Chiang J Y L. Gene. 2003; 313:71-82). Bile acid (BA) profiling in serum was carried out after acetonitrile precipitation/extraction (Leníček M, et al. J. Chromatogr. B Anal. Technol. Biomed. Life Sci. 2016; 1033-1034:317-320), using an adaptation (Nytofte N S, et al. J. Med. Genet. 2011; 48:219-225). of a previously described method for BA measurement by HPLC-MS/MS (Ye L, et al. J. Chromatogr. B Anal. Technol. Biomed. Life Sci. 2007; 860:10-17) on a 6420 Triple Quad LC/MS device (Agilent Technologies, Santa Clara, Calif.) (Monte M J, et al. J. Hepatol. 2002; 36:534-542). Alanine aminotransferase (ALT) was quantified in 40 μl plasma samples using a Cobas C311 automated chemistry analyser (Roche Diagnostics, Basel, Switzerland).
In order to determine if gene therapy is able to achieve sustained metabolic correction in CTX mice, the bile acid profile was analyzed in the blood of animals treated with AAV8-EAAT-CYP27A1 for 5 months at 1.5 or 15×10^12 vg/Kg. The optimal dose of CDCA (0.5% chow weight) was maintained for the same period and used for comparison. The inventors observed an increase of primary and secondary bile acids in mice treated with the vector at both doses (FIG. 12), including CDCA. […] This tendency was more evident in the high dose group and included other species such as tauromuricholic acids (TMCA) and taurohyodeoxycholic acid (THDCA). In sharp contrast, treatment with CDCA caused a drastic increase in this bile acid and its derivatives (1000-fold above normal levels), whereas CA and derived species were not restored.

Data set [5] has as its system Cyp7a1. Conditions: 0.5% diet (therapeutic dose), one month. As for the experimental part:
as §1, §2, §3

Data set [6] has as its system Cyp3a11. Conditions: 0.5% diet, one month. Here is the method: as §1, §2, §3
Data set [7] deals with CTX mice. The data set can be described thus: Cholestanol and 7αC4 in plasma of treated CTX mice (HPLC-MS/MS).
Excerpt: A mouse strain with truncation of Cyp27a1 exon 8 was obtained from The Jackson Laboratory (Bar Harbor, Me.) (B6.129-Cyp27a1^tm1Et/J, Ref. 009106) (Rosen H, et al. J. Biol. Chem. 1998; 273:14805-14812). Mice homozygous for this mutation (referred hereinafter to as Cyp27a1^−/− or CTX mice) were maintained in a C57BL6/J background by crossing heterozygous individuals. The offspring was genotyped after weaning as indicated by the repository.
Animals were group-housed, up to 6 animals per cage (male or female), provided with food and water ad libitum and maintained with a 12 h light-dark cycle. The average age for initiation of studies was 7 weeks. AAV vectors were administered intravenously by retro-orbital injection in a final volume of 150 μl saline solution. Chenodeoxycholic (CDCA) (Sigma-Aldrich, Ref: C9377-25G) was supplemented in standard chow at 0.1, 0.5 and 1 g CDCA/100 g of chow (0.1, 0.5 and 1.0% CDCA diets, respectively). Blood was collected by submandibular venous puncture using 1.3 ml EDTA tubes (Sarstedt, Nimbrecht, Germany) except for end-time points/terminal procedures, in which cardiac puncture was performed in anesthetized mice. Once animals were euthanized, liver samples were collected for histological and gene expression analyses.
as §4
This is the only CTX animal model available to date (Rosen et al. J. Biol. Chem. 273 (1998) 14805-14812).
Blood was collected 15 days later for determination of cholestanol and 7aC4 in plasma by HPLC/mass spectrometry. […] Of note, neither elevation of liver transaminases nor any other sign of toxicity was detected in any of the treated animals.

Setting [8] is: diet 0.1, 0.5 or 1% of chow weight, one month.

For the compound `C[C@H](CCC(=O)O)[C@H]1CC[C@H]2[C@@H]3[C@H](O)C[C@@H]4C[C@H](O)CC[C@]4(C)[C@H]3CC[C@]12C` [CDCA, chenodeoxycholic acid], the “hepatomegaly (relative liver weight)” value in data set [1] is recorded as “only partially”. In addition, the body weight result in data set [2] is reported as “weight loss”. The “transcription of the endogenous Cyp27a1 gene” value in data set [3] is recorded as “moderate inhibition”. In addition, in data set [4] (0.5% chow weight, 5 months), the “CA and derived species in blood” value was “not restored”; the “increase in CDCA and its derivatives in blood above normal levels” value came out at 1000 fold. In data set [4] (therapeutic dose (0.5%)), the CDCA in blood entry is “marked accumulation”. Further, in data set [5], the “Cyp7a1 expression in liver” value is recorded as “drastic reduction of Cyp7a1 expression, below physiological levels; also recorded: virtually abrogated”. In data set [6], the “Cyp3a11 expression in liver” value was “only a slight reduction”. In data set [7] (setting [8]), the 7αC4 in plasma result is on record as “dose-dependent reduction” and the cholestanol in plasma entry is “dose-dependent reduction”. Besides, the “cholestanol levels in plasma” value in data set [7] (diet 0.5% or higher, one month) is reported as “below WT mice; also recorded: very efficient”. Also, the 7αC4 in plasma result in data set [7] (diet 0.5%, one month, male and female) is recorded as “full normalization; also recorded: not completely normalized”. For the same compound, in data set [7] (percent of chow weight, dose required for normalization of 7αC4), the “therapeutic dose in the CTX model” value is given as 0.5%.
